From patent US20240201205A1, “METHOD FOR DETECTING NEUROLOGICAL DISEASES USING SUPRAMOLECULE POLYMER THERAPEUTICS” (The Regents of the University of California, priority 2022, published 2024)

Columns and labels:
[1] = test system: Alzheimer's disease tau paired-helical filaments (PHFs); experiment: Cryo-EM co-structure of GTP-1 with Alzheimer's disease tau paired-helical filaments; format: binding, human; settings: AD patient filaments
Procedure: Samples were incubated with 20 uM GTP-1 prior to vitrification. […] The micrograph images and their 2D classification reveal well-resolved filaments primarily in the PHF conformation, with crossover distances ranging from 700-800 Å. A minor population of straight filaments (SF) was also identified; however, further structural characterization was not feasible due to limited abundance. […] The PHF structure is comprised of two protofilaments related by two-fold symmetry with a 2.37 Å rise and 179.45° twist, consistent with previously reported structures of PHFs prepared from AD brains (13, 15).
Tau PHF filament purification. Filament purification was based on Fitzpatrick et al., 2017^1. […]
Cryo-EM sample preparation and data collection. […] For the tau PHF, 3 μL of purified filaments mixed with GTP-1 was added to a glow-discharged 200 mesh 1.2/1.3R Au Quantifoil grid for 10 seconds before blotting for 2 seconds, and then a second 3 μL aliquot was added for 3 seconds and blotted for 1 second before being plunge frozen in liquid ethane using a FEI Vitrobot Mark IV (Thermo Fisher Scientific). For the synuclein ligands, 3 μL of purified filaments mixed with compound was added to a 200 mesh 1.2/1.3R Au Quantifoil grid coated with a 2 nm thick layer of carbon, which had not been glow discharged. […]

[2] = molecular target: T1, α-synuclein fibrils isolated from an MSA patient sample (Homo sapiens, UniProt P37840); experiment: Cryo-EM co-structures of compounds with α-synuclein fibrils from MSA patient; format: binding; settings: fibrils from MSA patient sample; 20 μM ligand
T1 construct: fresh-frozen tissue from the cerebellum of patients clinically and neuropathologically diagnosed with MSA; from tissue; host or cells: cerebellum of MSA patients (sarkosyl-insoluble filament preparation)
Procedure: MSA filament purification. Filament purification was based on Schweigenhauser et al., 2020^2. Briefly, 1-2 g of fresh-frozen tissue from the cerebellum of patients clinically and neuropathologically diagnosed with MSA was homogenized at 20 mL/g of tissue in 10 mM Tris-HCl (pH 7.4), 800 mM NaCl, 1 mM EGTA, and 10% sucrose. A final concentration of 1% N-laurosarcosinate (w/v) was added to the homogenates, and these mixtures were incubated at 37° C. for 30 minutes. Homogenates were then centrifuged at 10,000 g for 10 minutes, and the supernatant was kept and then centrifuged at 100,000 g for 20 minutes. The pellets were resuspended at 500 μL/g of frozen tissue in 10 mM Tris-HCl (pH 7.4), 800 mM NaCl, 1 mM EGTA, and 10% sucrose. This was followed by another centrifugation at 3,000 g for 5 minutes. The supernatant was kept and diluted threefold with 50 mM Tris-HCl (pH 7.4), 150 mM NaCl, 10% sucrose, and 2% sarkosyl, followed by another centrifugation at 150,000 g for 1 hour. The final pellet resuspended in 30 mM Tris-HCl (pH 7.4) at a concentration of 100 μL/g frozen tissue.
Cryo-EM sample preparation and data collection. Purified frontal cortex and cerebellum tissue was incubated with 20 μM ligand for 45 minutes prior to freezing. For the tau PHF, 3 μL of purified filaments mixed with GTP-1 was added to a glow-discharged 200 mesh 1.2/1.3R Au Quantifoil grid for 10 seconds before blotting for 2 seconds, and then a second 3 μL aliquot was added for 3 seconds and blotted for 1 second before being plunge frozen in liquid ethane using a FEI Vitrobot Mark IV (Thermo Fisher Scientific). For the synuclein ligands, 3 μL of purified filaments mixed with compound was added to a 200 mesh 1.2/1.3R Au Quantifoil grid coated with a 2 nm thick layer of carbon, which had not been glow discharged. After 30 seconds, grids were blotted for 7.5 seconds at room temperature and 100% humidity. Grids were plunge frozen in liquid ethane using a FEI Vitrobot Mark IV. […] A defocus range of 0.8 to 1.8 μm was used with a total exposure time of 2.024 seconds fractionated into 0.025 seconds subframes. The total dose for each movie was 46 electrons/Å^2. Movies were motion-corrected using MotionCor2^3 in Scipion^4 and were Fourier cropped by a factor of 2 to a final pixel size of 0.834 Å per pixel.
Image processing. All image processing was done in RELION 4^5, and the same workflow was used for each dataset. Dose-weighted summed micrographs were imported into RELION 4. The contrast transfer function was estimated using CTFFIND-4.1^6. Filaments were manually picked and then segments were extracted with a box size of 900 pixels downscaled to 300 pixels. Contaminants and segments contributing to straight filaments were separated out using reference-free 2D class averaging. The remaining segments were re-extracted with a box size of 288 pixels without downscaling. An initial model was generated from a cylinder in RELION. One or more rounds of 3D classification with image alignment were performed, with helical rise and […] parameters fixed to eliminate obvious junk particles. One or more rounds of 3D auto-refinement was run using the best map from 3D classification low-pass filtered to 10 Å, allowing rise and twist parameters to vary. Maps were sharpened using the standard post-processing procedures in RELION.
Model building, refinement, and analysis. Prior to ligand placement, a single strand of a previously solved MSA or tau PHF filament structure^2 (PDB: 6XYQ) was refined against the density using Phenix^7. Refinement of the ligand binding pocket was done in COOT^8. Ligands were placed by hand in the density using Chimera^9. This model was then translated to give a stack spanning 5 rungs.

SMILES	binding site on tau PHF [1]	binding to α-synuclein fibrils (cryo-EM co-structure) [2]
FCCC1CCN(c2ccn3c(n2)nc2ccccc23)CC1 [GTP-1]	bound to a solvent exposed cleft (residues 351-360)	
CNc1nc(=O)n(-c2nc(-c3cc(C)cc(C)n3)oc2-c2ccc(F)c(F)c2)cc1F [compound 294]		bound to fibrils isolated from an MSA patient sample
CNc1nc(=O)n(-c2nc(-c3cccc(C)c3)oc2-c2ccc(Cl)c(F)c2)cc1F [Compound 83, 1-(5-(4-chloro-3-fluorophenyl)-2-(m-tolyl)oxazol-4-yl)-5-fluoro-4-(methylamino)pyrimidin-2(1H)-one]		bound to fibrils isolated from an MSA patient sample
O=C(Cn1cc(-c2ccoc2)c(=O)c2ccc(N3CCCC3)cc21)Nc1ccccc1C(F)(F)F [Compound 149, 2-[3-(furan-3-yl)-4-oxo-7-(pyrrolidin-1-yl)-1,4-dihydroquinolin-1-yl]-N-[2-(trifluoromethyl)phenyl]acetamide]		bound to fibrils isolated from an MSA patient sample
